Measurements as given in patent US7132458B2, “Oxidized carotenoid fractions and ketoaldehyde useful as cell-differentiation inducers, cytostatic agents, and anti-tumor agents” (Chemaphor Inc., priority 1994, dated 2006).

Legend:
[1] = test system: D 341 medulloblastoma (brain); experiment: Inhibition of proliferation and apoptosis, flow cytometry; format: cell-based; conditions: Homo sapiens, D341, 20–100 μM, 24, 48, 72 and 96 hours, read-out: Relative Inhibition of Proliferation
Method: (§1) The effect of the ketoaldehyde upon the inhibition of cell proliferation in cultured cancer cells was determined using a conventional, fluorescence-based anti-proliferative assay and a flow cytometry method. The extent of apoptosis was determined for some cell lines as well.
(§2) The effect of different concentrations of the ketoaldehyde upon the proliferation of the SW480 colorectal and MCF-7 breast cancer cell lines as a function of time is provided in FIGS. 12 and 13, respectively. The inhibition of proliferation in individual cell lines is summarized in Table 10, which provides a relative ranking of the ketoaldehyde's IC50 for each cell line.

[2] = test system: HCC 1143 breast carcinoma; experiment: as above; format: cell-based; conditions: Homo sapiens, HCC1143, 20–100 μM, 24, 48, 72 and 96 hours, read-out: Relative Inhibition of Proliferation
Method: as §1, §2

[3] = test system: HL-60 acute promyelocytic leukemia; experiment: as above; format: cell-based; conditions: Homo sapiens, 20–100 μM, 24, 48, 72 and 96 hours, read-out: Relative Inhibition of Proliferation
Method: as §1, §2

[4] = test system: MCF-7 breast adenocarcinoma; experiment: as above; format: cell-based; conditions: Homo sapiens, MCF7, 20–100 μM, 24, 48, 72 and 96 hours, read-out: Relative Inhibition of Proliferation
Method: as §1, §2

[5] = test system: NCI-H23 non-small cell lung cancer; experiment: as above; format: cell-based; conditions: Homo sapiens, 20–100 μM, 24, 48, 72 and 96 hours, read-out: Relative Inhibition of Proliferation
Method: as §1, §2

[6] = test system: SK-Mel malignant melanoma epidermal; experiment: as above; format: cell-based; conditions: Homo sapiens, 20–100 μM, 24, 48, 72 and 96 hours, read-out: Relative Inhibition of Proliferation
Method: as §1, §2

[7] = test system: SW480 colorectal adenocarcinoma; experiment: as above; format: cell-based; conditions: Homo sapiens, 20–100 μM, 24, 48, 72 and 96 hours, read-out: Relative Inhibition of Proliferation
Method: as §1, §2

[8] = test system: HCT116 colon cancer; experiment: Inhibition of proliferation, fluorescence-based assay; format: cell-based; conditions: Homo sapiens, HCT-116, 10–175 μM, 72 hours, read-out: Relative Inhibition of Proliferation
Method: as §1, §2

[9] = test system: HT29 colon cancer; experiment: as above; format: cell-based; conditions: Homo sapiens, HT-29, 10–175 μM, 72 hours, read-out: Relative Inhibition of Proliferation
Method: as §1, §2

[10] = test system: IMR32 neuroblastoma; experiment: as above; format: cell-based; conditions: Homo sapiens, IMR-32, 10–175 μM, 72 hours, read-out: Relative Inhibition of Proliferation
Method: as §1, §2

[11] = test system: K562 chronic myelogenous leukemia; experiment: as above; format: cell-based; conditions: Homo sapiens, 10–175 μM, 72 hours, read-out: Relative Inhibition of Proliferation
Method: as §1, §2

[12] = test system: NB4 acute promyelocytic leukemia; experiment: as above; format: cell-based; conditions: Homo sapiens, 10–175 μM, 72 hours, read-out: Relative Inhibition of Proliferation
Method: as §1, §2

[13] = test system: SW480 human colorectal tumor; experiment: Human xenograft tumor growth, nude mice; format: in vivo, mouse; conditions: 40 mg/kg body weight three times per week, FIG. 14
Method: FIG. 14 is a graph illustrating the inhibition of growth by the ketoaldehyde of a tumor derived from human colorectal cancer cells. Balb/c nude mice were inoculated subcutaneously in the flank with 5.0×10^6 cells of the SW-480 human colorectal adenocarcinoma cell line. There were 7 control animals and 7 animals in the treatment group. The administration schedule was 40 mg/kg of ketoaldehyde in 20% ethanol in saline given by intraperitoneal injection 3 times per week (Monday, Wednesday and Friday).
The ketoaldehyde provides a significant degree of tumor growth control for a period of more than 67 days in a nude mouse xenograft model of human colon cancer (human colon cancer cell line, SW480; see FIG. 14).

[14] = test system: LS174T colorectal tumor; experiment: Human xenograft tumor growth, SCID mice; format: in vivo, mouse; conditions: thrice-weekly dosing 40 mg/kg
[15] = test system: MCF-7 human breast cancer tumor; experiment: Human xenograft tumor growth, nude mice; format: in vivo, mouse; conditions: 40 mg/kg body weight
Source text: […] […] While the MCF-7 cell line appears to be less susceptible to the ketoaldehyde than the SW480 cell line, it should be noted that the MCF-7-derived tumors grow more aggressively than those derived from SW480, which necessitated using 20-fold fewer MCF-7 cells to obtain an initially slower rate of tumor growth.

[16] = test system: LNCaP-FGC-10 prostate tumors; experiment: Human xenograft tumor growth, nude mice; format: in vivo, mouse
Source text: The ketoaldehyde is also active against human LNCaP-FGC-10 prostate tumors grown in nude mice.

[17] = Pilot toxicity study; format: in vivo
Method: Significant inhibition of tumor growth has been obtained with doses of only 10–40 mg/kg body weight. Thus, the ketoaldehyde has a therapeutic index (400/(10–40)) of approximately 10 to 40.

[18] = test system: Lewis lung carcinoma; experiment: Lewis lung carcinoma model, lung metastases; format: in vivo, mouse
Method: The well-known Lewis lung carcinoma model was used as follows: cells were injected subcutaneously into the flanks of C57 BL/6 mice, which were assigned into control and treated groups containing ten animals per group. On day 8, the tumor was excised. The ketoaldehyde (200 mg/kg body weight) in 20% aqueous ethanol or drug vehicle (aqueous ethanol) was administered intraperitoneally on days 9, 11, 13, 15 and 19. On day 22, the animals were sacrificed and their lungs were removed. The lungs were weighed and the number of metastases determined by counting the nodules established in each lung.

[19] = test system: HCT116; conditions: from U.S. Ser. No. 08/527,039; cited from earlier work
[20] = test system: IMR32; conditions: from U.S. Ser. No. 08/527,039; cited from earlier work
[21] = test system: K562; conditions: from U.S. Ser. No. 08/527,039; cited from earlier work
[22] = test system: NB4; conditions: from U.S. Ser. No. 08/527,039; cited from earlier work
[23] = test system: DA-3 mammary adenocarcinoma; conditions: over 28 days; from U.S. Ser. No. 08/527,039; cited from earlier work

CC(=O)C=CC=C(C)C=O [the ketoaldehyde, 2-methyl-6-oxo-2,4-heptadienal]
IC50 [1]: ~50 µM
IC50 [2]: > 100 µM
IC50 [3]: ~50 µM
IC50 [4]: ~50 µM
IC50 [5]: ~50 µM
IC50 [6]: ~100 µM
IC50 [7]: ~50 µM
IC50 [8]: ~50 µM
IC50 [9]: ~100 µM
IC50 [10]: ~50 µM
IC50 [11]: > 100 µM
IC50 [12]: ~100 µM
period of significant tumor growth control [13]: more than 67 days
tumor response [14]: responded well
tumor response ([15]; daily dosing): improved response
tumor response ([15]; thrice-weekly dosing): responded
activity against tumors [16]: active
LD100 ([17]; mice, pilot toxicity study): approximately 400 mg/kg body weight
therapeutic index (400/(10–40)) ([17]; mouse, in vivo): 10–40
toxicity at therapeutically functional doses ([17]; mouse, in vivo): No toxicity
Mean Lung Weight ± SEM ([18]; 200 mg/kg i.p. days 9, 11, 13, 15, 19, day 22, control 0.287 ± 0.013 g, 2-tail t-test 0.004): 0.229 ± 0.012 g
Mean No. Metastases ± SEM ([18]; 200 mg/kg i.p. days 9, 11, 13, 15, 19, day 22, control 28.0 ± 2.4, 2-tail t-test 0.01): 14.4 ± 4.1
Difference in Mean Lung Weight, control minus treated ([18]; 200 mg/kg i.p., day 22): 0.058 g
Difference in Mean No. Metastases, control minus treated ([18]; 200 mg/kg i.p., day 22): 13.6
reduction in the number of lung metastases ([18]; treated animals versus control): ~50%
cytostatic effect [19]: cytostatic effect
cytostatic effect [20]: cytostatic effect
cytostatic effect [21]: cytostatic effect
cytostatic effect [22]: cytostatic effect
tumor volume [23]: less than 50 % of the control
